Experimental data: paper PMC9961069 (Metabolites, 2023)

How the values were obtained:
[1] = system: T1, DHFR in MDA-MB-468 lysates; assay: Lysate cellular thermal shift assay (CETSA) for DHFR; type: binding, Human; conditions: 10 μM, MDA-MB-468 lysate, 45 °C for 3 min, DMSO at 37 °C = 100%
T1 construct: reactions containing 55 μg MDA-MB-468 lysate; endogenous in cells; host or cells: MDA-MB-468
Protocol: Trypsinized MDA-MB-468 cells were harvested by centrifugation at 200× g for 5 min and washed with PBS supplemented with EDTA-free PIC (Roche) and flash frozen for storage at −80 °C. Cells were lysed by resuspension in 60 μL PBS/PIC per 1 × 10^6 cells. Cells were lysed by three freeze-thaw cycles, where cells were frozen in an ethanol/dry ice bath for 3 min, immediately followed by incubation in a 37 °C water bath for 3 min. The insoluble fraction was removed by centrifugation at 20,000× g for 20 min at 4 °C. The supernatant containing the soluble lysate was removed and saved for subsequent steps.
After incubation, each reaction was transferred to a 1.5 mL tube and centrifuged at 20,000× g for 20 min at 4 °C to remove the insoluble proteins. After centrifugation, 18 μL of supernatant was carefully removed from each reaction, without disturbing any pelleted aggregates, and added to 4.5 μL of 5× SDS-PAGE loading buffer. 11 μL of each reaction was loaded onto a gel in duplicate, and proteins were detected by Western blot (as described below). Resulting band densities were fit to the Boltzmann equation to determine the melting temperature (Tm):(3) y=Bottom+Top−Bottom/1+e^Tm−x/Slope
To rescue the thermal degradation of DHFR by inhibitors, samples containing 10 μM inhibitor, 55 μg lysate, and 1% DMSO in a total volume of 28 μL in DHFR buffer were prepared in PCR tubes and incubated at room temperature for 20 min. Two DMSO-only controls were also prepared. Reactions containing inhibitors were then incubated at 45 °C for 3 min. One DMSO-only control was also heated at 45 °C for 3 min, and the other control was heated at 37 °C for 3 min. The soluble protein fraction was separated from the insoluble proteins by centrifugation, and proteins were separated by SDS-PAGE, as described above, and analyzed via Western blot, as described below. Each experiment was repeated 3 times.
Proteins were electrophoretically separated on a 10% gel, and proteins were transferred to a methanol-activated PVDF membrane using the Trans-Blot Turbo transfer system (Bio-Rad) for 7 min at 1.3 A and 25 V in Trans-Blot Turbo transfer buffer (Bio-Rad). Membranes were blocked with 5% skim milk w/v in TBS-T (20 mM Tris, 150 mM NaCl, 0.05% Tween-20) for 1 h at room temperature. […] The horseradish peroxidase (HRP)-linked anti-mouse IgG secondary antibody (NA931, Cytiva; 1:3000) was added for 1 h at room temperature in 5% skim milk w/v in TBS-T. Signal was detected by adding Immobilon Forte Western HRP Substrate (Millipore), and chemiluminescence was captured on a Sapphire Biomolecular Imager (Azure Biosystems). Band densities were determined using ImageJ (Fiji). The band intensity of DHFR was normalized to the thermostable loading control SOD1 [22].

MDA-MB-231 cells = assay: LC/MS-based metabolite profiling; type: cell-based, Human; conditions: 24 h
Protocol: For characterization by mass spectrometry, MDA-MB-231 cells were seeded at a density of 3 × 10^5 cells per well in 6-well plates. […] DMSO only and DMSO + folinic acid controls were also performed. Per condition, biological quadruplicates of approximately one million cells were harvested, washed briefly with 1 mL of 0.9% NaCl (prepared in LC/MS-grade water Fisher Scientific W6500), and extracted in 500 μL prechilled extraction buffer (80% LC/MS-grade methanol, 20% 125 mM ammonium acetate, 12.5 mM sodium ascorbate prepared in LC/MS-grade water and supplemented with aminopterin (catalog no.: 16.330; Schircks Laboratories) and isotopically labeled internal standards (17 amino acids and reduced glutathione [Cambridge Isotope Laboratories; MSK- A2-1.2 and CNLM-6245-10])) using a cell scraper. After centrifugation for 10 min, 4 °C, at maximum speed on a benchtop centrifuge (Eppendorf), the cleared supernatant was transferred to a new tube and dried using a nitrogen dryer (Reacti-Vap™ Evaporator, Thermo Fisher Scientific, TS-18826) while on ice. Once the drying process was completed, samples were reconstituted in 50 µL QReSS water (Cambridge Isotope Laboratories, MSK-QRESS-KIT) by brief sonication in a 4 °C water bath. Extracted metabolites were spun for 3 min, 4 °C, at maximum speed on a bench-top centrifuge, and cleared supernatant was transferred to LC/MS microvials (National Scientific, C5000-45B). Three microliters of each sample were pooled and serially diluted 3- and 10-fold to be used as quality controls throughout the run of each batch. Unlabeled QReSS metabolites (Cambridge Isotope Laboratories, MSK-QReSS-US-KIT) and unlabeled amino acid mix standard (Cambridge Isotope Laboratories, MSK-A2-US-1.2) were also included in the run to ensure high-quality metabolomics results.
One microliter (equivalent to 2 × 10^4 cells) of the reconstituted sample was injected into a ZIC-pHILIC 150 × 2.1 mm (5 µm particle size) column (EMD Millipore) operated on a Vanquish™ Flex UHPLC Systems (Thermo Fisher Scientific, San Jose, CA, USA). Chromatographic separation was achieved using the following conditions: buffer A was acetonitrile; buffer B was 20 mM ammonium carbonate, 0.1% ammonium hydroxide. Gradient conditions were: linear gradient from 20% to 80% B; 20–20.5 min: from 80% to 20% B; 20.5–28 min: hold at 20% B. The column oven and autosampler tray were held at 25 °C and 4 °C, respectively.
Mass spectrometry data acquisition was performed using a QExactive benchtop orbitrap mass spectrometer equipped with an Ion Max source and a HESI II probe (Thermo Fisher Scientific, San Jose, CA, USA) and was performed in positive and negative ionization mode in a range of m/z = 70–1000, with the resolution set at 70,000, the AGC target at 1 × 10^6, and the maximum injection time (Max IT) at 20 msec. For nucleotide tSIM scans, the resolution was set at 70,000, the AGC target was 1 × 10^5, and the max IT was 100 msec.
Manual curation and integration of chromatographic peaks were performed with TraceFinder 4.1 (Thermo Fisher Scientific, Waltham, MA, USA) using a 5 ppm mass tolerance and referencing an in-house library of chemical standards. Data from TraceFinder were further consolidated and normalized with an in-house R script: (https://github.com/FrozenGas/KanarekLabTraceFinderRScripts/blob/main/MS_data_script_v2.4_20221018.R (accessed on 22 November 2022)). Briefly, this script performs normalization and quality control steps: (1) extracts and combines the peak areas from TraceFinder output .csvs; (2) calculates and normalizes to an averaged factor from all mean-centered chromatographic peak areas of isotopically labeled amino acids internal standards within each sample; (3) filters out low-quality metabolites based on user inputted cut-offs calculated from pool reinjections and pool dilutions; (4) calculates and normalizes for biological material amounts based on the total integrated peak area values of high-confidence metabolites. […]

[2] = system: STAT3 transcriptional activity in U3A STAT3 luciferase reporter cell line; assay: STAT3 luciferase reporter assay; type: cell-based; conditions: 0.02–20 μM, OSM 10 ng/mL
Protocol: The STAT3-dependent luciferase reporter assay was performed as previously reported. One day prior to the assay, the U3A STAT3 luciferase reporter cell line was seeded in a 96-well plate at 8000 cells per well. Cells were then incubated with compounds at the indicated concentration, and each well was treated with either media control or stimulated with 10 ng/mL oncostatin M (OSM) and incubated for six hours at 37 °C. Luciferase activity was quantified using the Bright-Glo Luciferase Assay system (Promega) and a Luminoskan Ascent Luminometer (Labsystems). Collected luminescence readings were normalized to DMSO-treated controls. Stimulation with (+OSM) gave luminescence values around 2.5 times that of the unstimulated control (−OSM). Quadruplicates were averaged and plotted with error bars representing standard deviation. Each condition was performed in quadruplicate on two separate occasions (n = 2) with representative data shown. Statistical significance was determined using Ordinary one-way ANOVA with a Dunnett multiple comparison test.

In the case of `CN(Cc1cnc2nc(N)nc(N)c2n1)c1ccc(C(=O)N[C@@H](CCC(=O)O)C(=O)O)cc1` [MTX, methotrexate], the “Normalized Band Density (%) of soluble DHFR” value [1] was “greater than 100%”, the “Normalized Band Density (%) of soluble DHFR” value ([1]; listed as Methotrexate) was 123.37 ± 73.5% and the “Orotate levels with FA supplementation” value (MDA-MB-231 cells; 10 μM + 300 μg/mL FA) was “returned orotate to vehicle control levels”. The “AICAR levels” value (MDA-MB-231 cells; 10 μM, inhibitor alone) was “failed to increase AICAR levels in a statistically significant manner”, the “Orotate levels” value (MDA-MB-231 cells; 10 μM, inhibitor alone) was “decreased or statistically insignificant changes in orotate levels” and the “UDP level” value (MDA-MB-231 cells; 10 μM, inhibitor alone versus DMSO) was “not upon treatment with MTX and 127159 alone”. For the same compound, the “Inhibition of STAT3-dependent luciferase activity” value [2] was “potent inhibition of luciferase activity”.
